Numbers after ± are expanded uncertainties.
Test: activity coefficient (dimensionless); of the first substance listed, at infinite dilution; xn = mol fraction of the nth substance listed
Conditions: 101 kPa, Liquid, Chromatography, x1 = 0

Row | SMILES | activity coefficient (318.15 K) | activity coefficient (328.15 K) | activity coefficient (338.15 K) | activity coefficient (348.15 K) | activity coefficient (358.15 K) | activity coefficient (368.15 K) | activity coefficient (298.15 K) | activity coefficient (308.15 K)
1 | CCC(C)O (configuration not stated) [butan-2-ol] + C[N+]1(CCCO)CCOCC1.O=S(=O)([N-]S(=O)(=O)C(F)(F)F)C(F)(F)F | 2.59 ± 0.18 | 2.52 ± 0.17 | 2.46 ± 0.17 | 2.4 ± 0.16 | 2.34 ± 0.16 | 2.29 ± 0.16 | – | –
2 | CCCC=O [butanal] + C[N+]1(CCCO)CCOCC1.O=S(=O)([N-]S(=O)(=O)C(F)(F)F)C(F)(F)F | 1.37 ± 0.09 | 1.4 ± 0.09 | 1.43 ± 0.09 | 1.45 ± 0.1 | 1.48 ± 0.1 | 1.5 ± 0.1 | – | –
3 | C1CCCCCC1 [cycloheptane] + C[N+]1(CCCO)CCOCC1.O=S(=O)([N-]S(=O)(=O)C(F)(F)F)C(F)(F)F | 82.8 ± 5.7 | 71 ± 4.9 | 62.6 ± 4.3 | 54.5 ± 3.7 | 47.2 ± 3.2 | 43 ± 2.9 | – | –
4 | C1CCCCC1 [cyclohexane] + C[N+]1(CCCO)CCOCC1.O=S(=O)([N-]S(=O)(=O)C(F)(F)F)C(F)(F)F | 66 ± 4.5 | 55.7 ± 3.8 | 48.3 ± 3.3 | 42.2 ± 2.9 | 36.3 ± 2.5 | 32.2 ± 2.2 | – | –
5 | C1=CCCCC1 [cyclohexene] + C[N+]1(CCCO)CCOCC1.O=S(=O)([N-]S(=O)(=O)C(F)(F)F)C(F)(F)F | 23.7 ± 1.6 | 21.6 ± 1.5 | 20.2 ± 1.4 | 18.6 ± 1.3 | 17.1 ± 1.2 | 16.2 ± 1.1 | – | –
6 | C1CCCCCCC1 [cyclooctane] + C[N+]1(CCCO)CCOCC1.O=S(=O)([N-]S(=O)(=O)C(F)(F)F)C(F)(F)F | 110 ± 8 | 93.7 ± 6.4 | 83.6 ± 5.7 | 71.9 ± 4.9 | 64.4 ± 4.4 | 58.6 ± 4 | – | –
7 | C1CCCC1 [cyclopentane] + C[N+]1(CCCO)CCOCC1.O=S(=O)([N-]S(=O)(=O)C(F)(F)F)C(F)(F)F | 41 ± 2.8 | 34.7 ± 2.4 | 30.6 ± 2.1 | 27.2 ± 1.9 | 23.5 ± 1.6 | 21.4 ± 1.5 | – | –
8 | CCCCCCCCCC [decane] + C[N+]1(CCCO)CCOCC1.O=S(=O)([N-]S(=O)(=O)C(F)(F)F)C(F)(F)F | 624 ± 43 | 543 ± 37 | 479 ± 33 | 419 ± 29 | 363 ± 25 | 328 ± 23 | – | –
9 | CCOCC [diethyl ether] + C[N+]1(CCCO)CCOCC1.O=S(=O)([N-]S(=O)(=O)C(F)(F)F)C(F)(F)F | 4.94 ± 0.34 | 5 ± 0.34 | 5.05 ± 0.34 | 5.1 ± 0.35 | 5.14 ± 0.35 | 5.19 ± 0.35 | – | –
10 | CC(C)OC(C)C [diisopropyl ether] + C[N+]1(CCCO)CCOCC1.O=S(=O)([N-]S(=O)(=O)C(F)(F)F)C(F)(F)F | 17.3 ± 1.2 | 17.1 ± 1.2 | 16.9 ± 1.2 | 16.7 ± 1.1 | 16.5 ± 1.1 | 16.3 ± 1.1 | – | –
11 | CCCOCCC [dipropyl ether] + C[N+]1(CCCO)CCOCC1.O=S(=O)([N-]S(=O)(=O)C(F)(F)F)C(F)(F)F | 20.1 ± 1.4 | 19.5 ± 1.3 | 18.9 ± 1.3 | 18.4 ± 1.3 | 17.9 ± 1.2 | 17.4 ± 1.2 | – | –
12 | CCO [ethanol] + C[N+]1(CCCO)CCOCC1.O=S(=O)([N-]S(=O)(=O)C(F)(F)F)C(F)(F)F | 1.4 ± 0.09 | 1.37 ± 0.09 | 1.34 ± 0.09 | 1.3 ± 0.08 | 1.28 ± 0.08 | 1.25 ± 0.08 | – | –
13 | CCOC(C)=O [ethyl acetate] + C[N+]1(CCCO)CCOCC1.O=S(=O)([N-]S(=O)(=O)C(F)(F)F)C(F)(F)F | 1.5 ± 0.1 | 1.56 ± 0.1 | 1.61 ± 0.11 | 1.66 ± 0.11 | 1.7 ± 0.11 | 1.77 ± 0.12 | – | –
14 | CCc1ccccc1 [ethylbenzene] + C[N+]1(CCCO)CCOCC1.O=S(=O)([N-]S(=O)(=O)C(F)(F)F)C(F)(F)F | 7.33 ± 0.5 | 7.28 ± 0.5 | 7.22 ± 0.49 | 7.18 ± 0.49 | 7.13 ± 0.49 | 7.09 ± 0.48 | – | –
15 | CCCCCCC [heptane] + C[N+]1(CCCO)CCOCC1.O=S(=O)([N-]S(=O)(=O)C(F)(F)F)C(F)(F)F | 223 ± 15 | 192 ± 13 | 162 ± 11 | 141 ± 10 | 116 ± 8 | 105 ± 7 | 345 ± 24 | 280 ± 19
16 | C=CCCCC [hex-1-ene] + C[N+]1(CCCO)CCOCC1.O=S(=O)([N-]S(=O)(=O)C(F)(F)F)C(F)(F)F | 58.2 ± 4 | 51.7 ± 3.5 | 45.2 ± 3.1 | 40.5 ± 2.8 | 35.9 ± 2.5 | – | – | –
17 | CCCCCC [hexane] + C[N+]1(CCCO)CCOCC1.O=S(=O)([N-]S(=O)(=O)C(F)(F)F)C(F)(F)F | 154 ± 11 | 122 ± 8 | – | – | – | – | 267 ± 18 | 201 ± 14
18 | CO [methanol] + C[N+]1(CCCO)CCOCC1.O=S(=O)([N-]S(=O)(=O)C(F)(F)F)C(F)(F)F | 0.945 ± 0.06 | 0.929 ± 0.059 | 0.915 ± 0.058 | 0.899 ± 0.057 | 0.884 ± 0.056 | 0.872 ± 0.056 | – | –
19 | CCCC(=O)OC [methyl butanoate] + C[N+]1(CCCO)CCOCC1.O=S(=O)([N-]S(=O)(=O)C(F)(F)F)C(F)(F)F | 2.41 ± 0.16 | 2.48 ± 0.17 | 2.56 ± 0.17 | 2.62 ± 0.18 | 2.68 ± 0.18 | 2.75 ± 0.19 | – | –
20 | COC(C)=O [methyl ethanoate] + C[N+]1(CCCO)CCOCC1.O=S(=O)([N-]S(=O)(=O)C(F)(F)F)C(F)(F)F | 0.926 ± 0.059 | 0.971 ± 0.061 | 1.02 ± 0.06 | 1.06 ± 0.07 | 1.1 ± 0.07 | 1.14 ± 0.07 | – | –
21 | CCC(=O)OC [methyl propanoate] + C[N+]1(CCCO)CCOCC1.O=S(=O)([N-]S(=O)(=O)C(F)(F)F)C(F)(F)F | 1.45 ± 0.1 | 1.51 ± 0.1 | 1.57 ± 0.1 | 1.63 ± 0.11 | 1.68 ± 0.11 | 1.74 ± 0.12 | – | –
22 | CC1CCCCC1 [methylcyclohexane] + C[N+]1(CCCO)CCOCC1.O=S(=O)([N-]S(=O)(=O)C(F)(F)F)C(F)(F)F | 102 ± 7 | 84.7 ± 5.8 | 73.3 ± 5 | 64.4 ± 4.4 | 55 ± 3.8 | 49.1 ± 3.4 | – | –
23 | CCCCCCCCC [nonane] + C[N+]1(CCCO)CCOCC1.O=S(=O)([N-]S(=O)(=O)C(F)(F)F)C(F)(F)F | 445 ± 31 | 385 ± 26 | 332 ± 23 | 287 ± 20 | 249 ± 17 | 224 ± 15 | – | –
